The test system of the experiment is Mycobacterium tuberculosis variant bovis. The experiment in a line: Antibacterial activity against Mycobacterium bovis BCG assessed as inhibition of bacterial growth incubated for 15 days by REMA method. The class given is functional. The note with it: 360 h, time 15 day.

In brackets after ≈: the same amount, converted by molar mass.

Usually MIC99 stands for the lowest concentration that inhibits either 99% of growth or 99% of the strains tested, depending on the study. For the compound `N#Cc1cc(OCCOc2ccccc2)cc(-c2ccc(C(=O)O)o2)c1`, the MIC99 came out at 63 µM (≈ 22 µg/mL).

The values are drawn from ChEMBL document CHEMBL5365393, “Comprehensive coverage on anti-mycobacterial endeavour reported during 2022” (Eur J Med Chem, 2023).
